This passage reports IC50, Activity and EC50 results from ChEMBL document CHEMBL5104160, “In vitro and in vivo neuroprotective effect of novel mPGES-1 inhibitor in animal model of Parkinson's disease” (Bioorg Med Chem Lett, 2022).

Activity calls are given as the source filed them. The rule behind the calls is not given here.

The nature of series [1]: Inhibition of PGE2 production in LPS-induced mouse RAW264.7 cells. Format: functional, cell-based.
The test system of series [2] is RAW264.7. The experiment in a line: Cytotoxicity against mouse RAW264.7 cells assessed as decrease in cell viability at 1 uM. In kind it is toxicity, cell-based. Particulars: raw264.7, 1 µM.
In series [3] the test system is Mus musculus. The experiment in a line: Neuroprotective effect in 6-OHDA-induced lesioned mouse model of Parkinson's disease assessed as decrease in time to turn at 80 mg/kg/day, po administered for 7 days measured by Pole test. In kind it is functional, organism-based. Particulars: time 7.0 day.
The test system of series [4] is Mus musculus. The experiment in a line: Neuroprotective effect in 6-OHDA-induced lesioned mouse model of Parkinson's disease assessed as decrease in time for locomotion activity at 80 mg/kg/day, po administered for 7 days measured by Pole test. Format: functional, organism-based. Particulars: time 7.0 day.
Series [5] concerns RAW264.7. Briefly: Cytotoxicity against mouse RAW264.7 cells assessed as decrease in cell viability at 100 to 1000 nM. Format: toxicity, cell-based. Particulars: raw264.7, 1 µM, dose 100-1000 nM.
Series [6] concerns A549. Briefly: Inhibition of PGE2 production in IL-1beta-induced human A549 cells assessed as decrease in PGE2 production measured after 24 hrs by enzyme immunoassay. Particulars: A549, 24 h. Format: functional, cell-based.
The test system of series [7] is Blood. The experiment in a line: Inhibition of PGE2 production in LPS-induced human whole blood. In kind it is functional, tissue-based.
In series [8] the target is T1, Prostaglandin E synthase (Homo sapiens, UniProt O14684).
T1 sequence (O14684 whole entry): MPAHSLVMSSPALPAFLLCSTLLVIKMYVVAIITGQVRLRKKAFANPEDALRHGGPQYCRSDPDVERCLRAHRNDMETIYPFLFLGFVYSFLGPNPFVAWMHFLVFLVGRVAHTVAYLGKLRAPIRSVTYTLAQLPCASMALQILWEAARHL
Briefly: Inhibition of human mPGES-1 assessed as reduction in PGE2 production.

The subject of series [9] is PC-12. Briefly: Neuroprotective activity against 6-OHDA-induced cytotoxicity in rat PC-12 cells at 10 uM measured after 12 hrs by MTT assay. In kind it is functional, cell-based. (In general: Tetrazolium assays rely on reduction of a dye to a coloured formazan, in cell work by metabolically active cells.)
The test system of series [10] is PC-12. The experiment in a line: Neuroprotective activity against 6-OHDA-induced cytotoxicity in rat PC-12 cells measured after 3 hrs by MTT assay. Particulars: read-out: ED50 (the source's name). In kind it is functional.
Series [11] concerns Mus musculus. Briefly: Neuroprotective effect in 6-OHDA-induced lesioned mouse model of Parkinson's disease assessed as decrease in time to turn at 1 mg/kg/day, ip administered for 7 days measured by Pole test. In kind it is functional, organism-based. Particulars: time 7.0 day.
Series [12] has as its system Mus musculus. The experiment in a line: Neuroprotective effect in 6-OHDA-induced lesioned mouse model of Parkinson's disease assessed as decrease in time for locomotion activity at 1 mg/kg/day, ip administered for 7 days measured by Pole test. In kind it is functional, organism-based. Particulars: time 7.0 day.
Series [13] relates to Mus musculus. The experiment in a line: Neuroprotective effect in 6-OHDA-induced lesioned mouse model of Parkinson's disease assessed as increase in latency time at 1 mg/kg/day, ip administered for 7 days measured by rotarod test. Format: functional, organism-based. Particulars: time 7.0 day. In general terms: In the rotarod test animals must keep their balance on a rotating rod.

The test system of series [14] is Mus musculus. The experiment in a line: Neuroprotective effect in 6-OHDA-induced lesioned mouse model of Parkinson's disease assessed as decrease in falling frequency at 1 mg/kg/day, ip administered for 7 days measured by rotarod test. Format: functional, organism-based. Particulars: time 7.0 day.
For series [15], the system named is Mus musculus. Briefly: Neuroprotective activity against in 6-OHDA-induced neurotoxicity in mouse assessed as increase in tyrosine hydroxylase (TH)-positive fibers in striatum of brain at 1 mg/kg/day, ip administered for 7 days measured by immunohistochemistry analysis. In kind it is functional, organism-based. Particulars: time 7.0 day.
The test system of series [16] is Mus musculus. The experiment in a line: Neuroprotective activity against in 6-OHDA-induced neurotoxicity in mouse assessed as increase in tyrosine hydroxylase (TH)-positive neurons in substantia nigra pars compacta of brain at 1 mg/kg/day, ip administered for 7 days measured by immunohistochemistry analysis. In kind it is functional, organism-based. Particulars: time 7.0 day.

For orientation: IC50 means the point on the concentration scale where inhibition reaches its midpoint. `Cc1ccc(S(=O)(=O)N(Nc2ccccc2)C(=O)Oc2cccc3c2CCC3)cc1` registered an IC50 in series [1] of 398 nM. Further, the Activity result in series [2] was “Non-Toxic”.
Taken in the same sequence, the figures for `Cc1cc(C)c(S(=O)(=O)N(Nc2ccccc2)C(=O)Oc2ccc(Oc3ccccc3)cc2)c(C)c1` were 177 nM and “Non-Toxic”.
Take `Cc1ccccc1NN(C(=O)Oc1ccccc1)S(=O)(=O)c1ccc(Cl)cc1`: the IC50 in series [1] was > 1000 nM. In series [2], the Activity entry is “Non-Toxic”.
For `Cc1cc(C)c(S(=O)(=O)N(Nc2ccccc2)C(=O)Oc2cccc3c2CCC3)c(C)c1`, in that order: 313 nM and “Non-Toxic”.
Taken in the same sequence, the figures for `O=C(Oc1ccc([N+](=O)[O-])cc1)N(Nc1ccc(Cl)cc1)S(=O)(=O)c1ccc(Cl)cc1` were 645 nM and “Non-Toxic”.
Taken in the same sequence, the figures for `O=C(Oc1cccc2c1CCC2)N(Nc1ccccc1)S(=O)(=O)c1ccc(C(F)(F)F)cc1` were 246 nM and “Non-Toxic”.
On to `O=C(Oc1ccccc1)N(Nc1ccccc1)S(=O)(=O)c1ccc(Br)cc1`, for which the Activity entry in series [2] is given as “Non-Toxic”.
Still for that read-out and setting: under `O=C(Oc1ccccc1)N(Nc1ccccc1)S(=O)(=O)c1ccc(F)cc1` stands “Non-Toxic”.
As to `Cc1cc(C)c(S(=O)(=O)N(Nc2ccccc2)C(=O)Oc2ccc(OCc3ccccc3)cc2)c(C)c1`, in series [2], the Activity entry is listed as “Non-Toxic”.
Consider `O=C(Oc1ccc(OCc2ccccc2)cc1)N(Nc1ccccc1)S(=O)(=O)c1ccc(Cl)cc1`, for which 59.1 nM corresponded to half-maximal inhibition in series [1] (IC50). Besides, in series [2], the Activity result is listed as “Non-Toxic”.
For `O=C(Oc1ccc(OCc2ccccc2)cc1)N(Nc1ccccc1)S(=O)(=O)c1ccc(-c2ccccc2)cc1`, in that order: 93 nM and “Non-Toxic”.
`O=C(Oc1ccc([N+](=O)[O-])cc1)N(Nc1cccc(Cl)c1)S(=O)(=O)c1ccc(Cl)cc1` showed an IC50 in series [1] of 759 nM. For the same compound, in [2], the Activity result is “Non-Toxic”.
Take `CCc1ccc(S(=O)(=O)N(Nc2ccccc2)C(=O)Oc2ccc(Oc3ccccc3)cc2)cc1`: 434 nM corresponded to half-maximal inhibition in series [1] (IC50). Besides, the Activity result in series [2] is reported as “Non-Toxic”.
In the case of `N[C@@H](Cc1ccc(O)c(O)c1)C(=O)O`, the outcome in series [3] and in series [4] was Active.
With `Cc1ccccc1NN(C(=O)Oc1ccccc1)S(=O)(=O)c1ccccc1`, in series [1], the IC50 is 1000 nM. Moreover, the Activity entry in [2] is on record as “Non-Toxic”.
Taken in the same sequence, the figures for `O=C(Oc1cccc2c1CCC2)N(Nc1ccccc1)S(=O)(=O)c1ccc(Cl)cc1` were 429 nM and “Non-Toxic”.
For `Cc1cccc(NN(C(=O)Oc2ccc([N+](=O)[O-])cc2)S(=O)(=O)c2ccc(Cl)cc2)c1`, in that order: 806 nM and “Non-Toxic”.
Take `O=C(Oc1ccc(OCc2ccccc2)cc1)N(Nc1cccc(Cl)c1)S(=O)(=O)c1ccc(Cl)cc1`: the IC50 in [1] was determined as 41.8 nM; in series [6], 145 nM; in [7], 428 nM; in series [8], 1.16 nM. For the same compound, the Activity entry in series [2] and in series [5] was “Non-Toxic” in each case. Further, the result in [9], in series [11], in series [12], in series [13], in series [14] and in series [15] was Active. Also, the outcome in [16] was Active. Besides, the EC50 in series [10] is 3 nM.
With `CC(C)(C)c1ccc(S(=O)(=O)N(Nc2ccccc2)C(=O)Oc2ccc(OCc3ccccc3)cc2)cc1`, the Activity result in [2] is recorded as “Non-Toxic”.
As for `O=C(Oc1ccc(OCc2ccccc2)cc1)N(Nc1ccccc1)S(=O)(=O)c1ccc(C(F)(F)F)cc1`, the IC50 in series [1] was 47.1 nM. Further, the Activity entry in series [2] is given as “Non-Toxic”.
With `O=C(Oc1ccc(Oc2ccccc2)cc1)N(Nc1ccccc1)S(=O)(=O)c1ccc(-c2ccccc2)cc1`, the IC50 in [1] turned out to be 161 nM. The Activity result in series [2] is reported as “Non-Toxic”.
